Values joined by “and” are separate entries in the source; they are usually repeats but may differ in a detail not shown here. Identical values can stand only once. Like-named read-outs stand apart in the source and are kept apart here.
Tests used:
human platelet = details: cited from earlier work; for IC50: literature, read-out: IC50, inhibition of AA-induced platelet aggregation
[1] = tested on: human platelet-rich plasma; assay: Inhibition of arachidonic acid-induced aggregation in human platelet-rich plasma; assay type: cell-based
Description: The R- and S-enantiomers were tested as inhibitors of arachidonic acid-induced aggregation in human platelet-rich plasma. Data for individual experiments (2 separate donors) are given as pIC50 (log molar inhibitory concentration of each drug which blocks aggregation to arachidonic acid by 50%) Inhibitors were preincubated for 1 minute prior to addition of arachidonic acid (200-400 μM). Changes in light transmission were measured as an index of aggregation and quantified after 4 minutes.

platelet function = details: cited from earlier work
[2] = Homo sapiens, arithmetic average of raw data, N = 3, read-out: inhibitory concentration which blocks aggregation by 50%, AVE
[3] = Homo sapiens, average, N = 3, read-out: pIC50 (-1xLOG(0.000001xDATA)), AVE (converted)
[4] = Homo sapiens, geometric mean, N = 3, read-out: inhibitory concentration which blocks aggregation by 50%, back-transformed data (Geometric mean) AVE

IC50 [1, 2] | IC50 [1, 3] | IC50 [1, 4] | Structure (SMILES) | IC50 (human platelet) | other results
– | – | – | O=C1OC(c2ccc(-c3ccccc3)cc2)C(O)=C1O (centres unmarked) [Example 4-biphenyl] | 135 µM | –
653 µM | 647 µM | 647 µM | CCCCC/C=C\C/C=C\C/C=C\C/C=C\CC[C@H]1OC(=O)C(O)=C1O [(R)-3,4-Dihydroxy-5-[all-Z)-3,6,9,12-octadecatetraenyl]-2(51H)-furanone] | – | IC50 ([1]; Homo sapiens, individual experiments, human platelet-rich plasma, arachidonic acid 200-400 μM, 1 minute preincubation, quantified after 4 minutes, read-out: inhibitory concentration which blocks aggregation to arachidonic acid by 50% (RAW DATA)): 764 µM; IC50 ([1]; Homo sapiens, individual experiments, human platelet-rich plasma, arachidonic acid 200-400 μM, read-out: pIC50 (-1xLOG(0.000001xDATA)) (converted)): 764 µM; pIC50 (-1xLOG(0.000001xDATA)) ([1]; individual experiments, human platelet-rich plasma, arachidonic acid 200-400 μM): 3.269 and 3.182; IC50 ([1]; individual experiments, human platelet-rich plasma, arachidonic acid 200-400 μM, 1 minute preincubation, quantified after 4 minutes, read-out: inhibitory concentration which blocks aggregation to arachidonic acid by 50% (RAW DATA)): 538 µM and 657 µM
2.27 µM | 1.45 µM | 1.45 µM | CCCCC/C=C\C/C=C\C/C=C\C/C=C\CC[C@@H]1OC(=O)C(O)=C1O [(S)-3,4 -Dihydroxy-5-[(all-Z)-3,6,9,12-octadecatetraenyl]-2 (5H)-furanone] | – | –
– | – | – | O=C1OC(c2ccc(Cl)cc2)C(O)=C1O (centres unmarked) [CHTA, 4-(4-chlorophenyl)-2-hydroxytetronic acid] | – | antilipidemic and antiaggregatory properties (human platelet): possesses antilipidemic and antiaggregatory properties; inhibition of platelet function (platelet function): inhibits platelet function by both enzyme inhibitory and ROS scavenging mechanisms resulting ultimately in the blockage of thromboxane A2 synthesis
– | – | – | O=C1OC(c2ccc(-c3ccc(Cl)cc3)cc2)C(O)=C1O (centres unmarked) [4-(4'-chlorobiphenyl)-2-hydroxytetronic acids] | 44 µM | –
